Measured values: ChEMBL document CHEMBL1141311, “Bioactive secondary metabolites from Boesenbergia pandurata of Myanmar and their preferential cytotoxicity against human pancreatic cancer PANC-1 cell line in nutrient-deprived medium” (2007)

System: PANC-1
Assay: Cytotoxicity against human PANC1 cells assessed as cell viability
Type: functional

SMILES | PC100
COc1cc(O)c(C/C=C(\C)CCC=C(C)C)c(O)c1C(=O)/C=C/c1ccccc1 | 16 µM
COc1cc(C[C@H]2C(=O)OC[C@@H]2Cc2ccc(OC)c(OC)c2)ccc1O [ARCTIGENIN] | 1 µM
COc1cc(O)cc(O)c1C(=O)/C=C/c1ccccc1 [CARDAMOMIN] | >256 µM
COc1cc(O)cc2c1C(=O)C[C@@H](c1ccccc1)O2 | >256 µM
COc1cc(O)c2c(=O)cc(-c3ccccc3)oc2c1 [TECHTOCHRYSIN] | >256 µM
COc1cc(O)c2c(c1)O[C@H](c1ccccc1)CC2=O [PINOSTROBIN] | >256 µM
CC(C)=CCC/C(C)=C/Cc1c(O)cc2c(c1O)C(=O)C[C@@H](c1ccccc1)O2 | 8 µM
COc1cc(O)cc(O)c1C(=O)[C@@H]1[C@H](CC=C(C)C)C(C)=CC[C@H]1c1ccc(O)cc1 (racemic) | >256 µM
O=C1C[C@@H](c2ccccc2)Oc2cc(O)cc(O)c21 [PINOCEMBRIN] | 64 µM
CC(C)=CCCC1(C)C=Cc2c(cc3c(c2O)C(=O)C[C@@H](c2ccccc2)O3)O1 (stereo partly specified) | 64 µM
COc1cc2c(c(O)c1C(=O)/C=C/c1ccccc1)C=CC(C)(CCC=C(C)C)O2 (stereo unspecified) [BOESENBERGIN B] | 64 µM
COc1cc(/C=C/c2ccccc2)oc(=O)c1 [DESMETHOXYYANGONIN] | >256 µM
CC(C)=CCC/C(C)=C/COC(=O)c1c(O)cc(O)cc1CCc1ccccc1 | 16 µM
COc1cc(O)c(C(=O)[C@@H]2[C@H](CC=C(C)C)C(C)=CC[C@H]2c2ccccc2)c(OC)c1 (racemic) | 64 µM
COc1cc(O)cc(O)c1C(=O)[C@@H]1CC=C(C)[C@@H](CC=C(C)C)[C@H]1c1ccccc1 (racemic) | 8 µM
COc1cc2c(c(O)c1C/C=C(\C)CCC=C(C)C)C(=O)C[C@@H](c1ccccc1)O2 | 128 µM
COc1cc(O)c2c(c1C/C=C(\C)CCC=C(C)C)O[C@@H](c1ccccc1)CC2=O | 128 µM
CC(C)=CC[C@@H]1C(C)=CC[C@@H](C(=O)c2c(O)cc(O)cc2O)[C@@H]1c1ccccc1 | 16 µM
CC(C)=CC[C@@H]1C(C)=CC[C@@H](c2ccccc2)[C@@H]1C(=O)c1c(O)cc(O)cc1O [4-HYDROXYPANDURATIN A] | 16 µM
COc1cc(O)cc2c1C(=O)C[C@@H](c1ccc(O)cc1)O2 | >256 µM
COc1cc(O)c(C(=O)/C=C/c2ccccc2)c2c1C=CC(C)(CCC=C(C)C)O2 (stereo unspecified) [BOESENBERGIN A] | 64 µM
COc1cc(O)c(C(=O)/C=C/c2ccc(O)cc2)c(OC)c1 [FLAVOKAWAIN C] | >256 µM
CC(=O)O[C@H]1C(=O)[C@@]2(C)[C@H]([C@H](OC(=O)c3ccccc3)[C@]3(O)C[C@H](OC(=O)[C@H](O)[C@@H](NC(=O)c4ccccc4)c4ccccc4)C(C)=C1C3(C)C)[C@]1(OC(C)=O)CO[C@@H]1C[C@@H]2O [PACLITAXEL] | >256 µM
COc1cc(O)c(C(=O)[C@@H]2CC=C(C)[C@@H](CC=C(C)C)[C@H]2c2ccccc2)c(O)c1 [(-)-NICOLAIOIDESIN B] | 2.5 µM
COc1cc(O)c(C(=O)[C@@H]2[C@H](CC=C(C)C)C(C)=CC[C@H]2c2ccccc2)c(O)c1 [PANDURATIN A] | 2.5 µM
COc1cc(O)cc(O)c1C(=O)[C@@H]1[C@H](CC=C(C)C)C(C)=CC[C@H]1c1ccccc1 | 16 µM
